Earlier results as cited in patent US6514973B1, “Compositions for the treatment and prevention of neurological and pathopsychological diseases” (Merck Patent Geseilschaft Mit Beschrankter Haftung, priority 1998, dated 2003).

## Phosphatidylserines
  time until appearance in the blood after oral administration: about 30 minutes
